Reference: US20170008888A1 (KYORIN PHARMACEUTICAL CO., LTD., priority 2014, published 2017)

System: DNFB-induced ear inflammation mouse model
Assay: DNFB-induced ear inflammation mouse model: cytokine concentrations in ear tissue
Type: in vivo, mouse (Balb/c)
Procedure: In vivo T-cell mediated immune response was examined in a mouse model of CHS using the hapten dinitrofluorobenzene (DNFB) as the induction agent. […] On Days 0 and 1 (sensitization), 20 μL of 0.5% v/v DNFB in acetone:olive oil (4:1) was applied to each hindpaw of 8 week old male mice (Balb/c, Charles River Laboratories; 10 mice per group unless otherwise noted). On Day 5 (elicitation) 10 μL of 0.2% v/v DNFB in acetone: olive oil (4:1) was applied to the dorsal surface of the right ear of each animal; 10 μL of acetone: olive oil (4:1) was applied to the dorsal surface of the left ear as control. Treatments were administered by group as indicated in the table below; on days when DNFB was used, the QD and the morning dose of BID as appropriate were administered 30 minutes-1 hr. prior to DNFB application. […] Approximately 24 hours after elicitation (Day 6), a 7 mm tissue punch from the central portion of both ears was collected and wet weights measured. The primary functional assessment was the difference in wet weights of the right (DNFB) vs. left (vehicle) ears compared to the vehicle treatment (Vehicle1-S) as an indicator of inflammation (Table 17). Ear tissue punches were flash frozen, stored at −70° C. and analyzed for cytokines (see below).
Cytokine concentrations after DNFB induction and treatment were analyzed in the weighed and flash frozen tissues of the right (DNFB) and left (control) 7 mm ear punches. The ear tissues were stored at −70° C. until prepared for analysis as follows. Left or right ear tissues from the same treatment group were pooled and crushed with mortar and pestle under liquid nitrogen. Tissue representing 7-8 ear punches by weight was homogenized in Buffer A (50 mM HEPES pH 7.4, 100 mM NaCl) containing 1 tablet EDTA-free Protease Inhibitor (Thermo Fisher Scientific, Rockford, Ill.) per 10 mL, 1× Phosphatase Inhibitor Cocktail II (AG Scientific, San Diego, Calif.), and 1 mM PMSF (Sigma, St. Louis, Mo.). Homogenization was performed in Lysing Matrix D tubes (MP Biomedicals, Solon, Ohio), using the FastPrep-24 instrument (MP Biomedicals) at a speed setting of 6 for 4 cycles of 30 seconds, with cooling on ice in between cycles. The tubes were then centrifuged at 1,000×g for 10 min at 4° C. Supernatant was collected and briefly sonicated using the Microson probe sonicator at setting 3 (Misonix, Farmingdale, N.Y.) before centrifuging again at 10,000×g for 10 min at 4° C. The supernatant was ultracentrifuged at 100,000×g for 1 h at 4° C. in the Optima Max-E (Beckman Coulter, Indianapolis, Ind.) to separate soluble and membrane protein fractions. The soluble (supernatant) fraction was collected and protein concentrations determined using the Dc protein kit (Bio-Rad, Hercules, Calif.). Soluble ear proteins were analyzed in triplicate for cytokine response at a final protein concentration of 4 mg/ml using the Bio-Plex Pro Mouse Cytokine 23-Plex panel (Bio-Rad) as per manufacturer's protocols. Magnetic beads were read on the Bio-Plex MAGPIX multiplex reader instrument using the accompanying xPONENT 4.2 acquisition software (Bio-Rad Laboratories, Hercules, Calif.). Data were analyzed via the Bio-Plex Manager software v6.1 (Bio-Rad Laboratories). Response was calculated as a percentage of the cytokine concentrations measured in the right (DNFB) ears of vehicle 1 dosed (S regimen, i.e. dosed Day 0-5) mice (Table 18).

CCOc1cc(C(=O)N2CCCN(C)CC2)ccc1Nc1cc2c(cn1)N(C)C(=O)c1ccccc1N2C [Compound 8]
G-CSF: Mean % Cytokine Concentration in DNFB Treated Right Ears versus Vehicle 1-Dosed (S) Mice (25 mg/kg, regimen E): 68%
GM-CSF: Mean % Cytokine Concentration in DNFB Treated Right Ears versus Vehicle 1-Dosed (S) Mice (25 mg/kg, regimen E): 40%
IFN-γ: Mean % Cytokine Concentration in DNFB Treated Right Ears versus Vehicle 1-Dosed (S) Mice (25 mg/kg, regimen E): 52%
IL-1α: Mean % Cytokine Concentration in DNFB Treated Right Ears versus Vehicle 1-Dosed (S) Mice (25 mg/kg, regimen E): 88%
IL-1β: Mean % Cytokine Concentration in DNFB Treated Right Ears versus Vehicle 1-Dosed (S) Mice (25 mg/kg, regimen E): 56%
IL-3: Mean % Cytokine Concentration in DNFB Treated Right Ears versus Vehicle 1-Dosed (S) Mice (25 mg/kg, regimen E): 67%
IL-5: Mean % Cytokine Concentration in DNFB Treated Right Ears versus Vehicle 1-Dosed (S) Mice (25 mg/kg, regimen E): 37%
IL-6: Mean % Cytokine Concentration in DNFB Treated Right Ears versus Vehicle 1-Dosed (S) Mice (25 mg/kg, regimen E): 58%
IL-12 (p40): Mean % Cytokine Concentration in DNFB Treated Right Ears versus Vehicle 1-Dosed (S) Mice (25 mg/kg, regimen E): 79%
IL-13: Mean % Cytokine Concentration in DNFB Treated Right Ears versus Vehicle 1-Dosed (S) Mice (25 mg/kg, regimen E): 74%
IL-17A: Mean % Cytokine Concentration in DNFB Treated Right Ears versus Vehicle 1-Dosed (S) Mice (25 mg/kg, regimen E): 69%
KC: Mean % Cytokine Concentration in DNFB Treated Right Ears versus Vehicle 1-Dosed (S) Mice (25 mg/kg, regimen E): 39%
MCP-1: Mean % Cytokine Concentration in DNFB Treated Right Ears versus Vehicle 1-Dosed (S) Mice (25 mg/kg, regimen E): 44%
MIP-1α: Mean % Cytokine Concentration in DNFB Treated Right Ears versus Vehicle 1-Dosed (S) Mice (25 mg/kg, regimen E): 62%
MIP-1β: Mean % Cytokine Concentration in DNFB Treated Right Ears versus Vehicle 1-Dosed (S) Mice (25 mg/kg, regimen E): 60%
RANTES: Mean % Cytokine Concentration in DNFB Treated Right Ears versus Vehicle 1-Dosed (S) Mice (25 mg/kg, regimen E): 66%
TNF-α: Mean % Cytokine Concentration in DNFB Treated Right Ears versus Vehicle 1-Dosed (S) Mice (25 mg/kg, regimen E): 53%
G-CSF: Mean % Cytokine Concentration in DNFB Treated Right Ears versus Vehicle 1-Dosed (S) Mice (60 mg/kg, regimen E): 50%
GM-CSF: Mean % Cytokine Concentration in DNFB Treated Right Ears versus Vehicle 1-Dosed (S) Mice (60 mg/kg, regimen E): 48%
IFN-γ: Mean % Cytokine Concentration in DNFB Treated Right Ears versus Vehicle 1-Dosed (S) Mice (60 mg/kg, regimen E): 58%
IL-1α: Mean % Cytokine Concentration in DNFB Treated Right Ears versus Vehicle 1-Dosed (S) Mice (60 mg/kg, regimen E): 188%
IL-1β: Mean % Cytokine Concentration in DNFB Treated Right Ears versus Vehicle 1-Dosed (S) Mice (60 mg/kg, regimen E): 62%
IL-3: Mean % Cytokine Concentration in DNFB Treated Right Ears versus Vehicle 1-Dosed (S) Mice (60 mg/kg, regimen E): 77%
IL-5: Mean % Cytokine Concentration in DNFB Treated Right Ears versus Vehicle 1-Dosed (S) Mice (60 mg/kg, regimen E): 57%
IL-6: Mean % Cytokine Concentration in DNFB Treated Right Ears versus Vehicle 1-Dosed (S) Mice (60 mg/kg, regimen E): 61%
IL-12 (p40): Mean % Cytokine Concentration in DNFB Treated Right Ears versus Vehicle 1-Dosed (S) Mice (60 mg/kg, regimen E): 88%
IL-13: Mean % Cytokine Concentration in DNFB Treated Right Ears versus Vehicle 1-Dosed (S) Mice (60 mg/kg, regimen E): 85%
IL-17A: Mean % Cytokine Concentration in DNFB Treated Right Ears versus Vehicle 1-Dosed (S) Mice (60 mg/kg, regimen E): 68%
KC: Mean % Cytokine Concentration in DNFB Treated Right Ears versus Vehicle 1-Dosed (S) Mice (60 mg/kg, regimen E): 29%
MCP-1: Mean % Cytokine Concentration in DNFB Treated Right Ears versus Vehicle 1-Dosed (S) Mice (60 mg/kg, regimen E): 47%
MIP-1α: Mean % Cytokine Concentration in DNFB Treated Right Ears versus Vehicle 1-Dosed (S) Mice (60 mg/kg, regimen E): 62%
MIP-1β: Mean % Cytokine Concentration in DNFB Treated Right Ears versus Vehicle 1-Dosed (S) Mice (60 mg/kg, regimen E): 44%
RANTES: Mean % Cytokine Concentration in DNFB Treated Right Ears versus Vehicle 1-Dosed (S) Mice (60 mg/kg, regimen E): 53%
TNF-α: Mean % Cytokine Concentration in DNFB Treated Right Ears versus Vehicle 1-Dosed (S) Mice (60 mg/kg, regimen E): 81%
G-CSF: Mean % Cytokine Concentration in DNFB Treated Right Ears versus Vehicle 1-Dosed (S) Mice (60 mg/kg, regimen S): 36%
GM-CSF: Mean % Cytokine Concentration in DNFB Treated Right Ears versus Vehicle 1-Dosed (S) Mice (60 mg/kg, regimen S): 52%
IFN-γ: Mean % Cytokine Concentration in DNFB Treated Right Ears versus Vehicle 1-Dosed (S) Mice (60 mg/kg, regimen S): 46%
IL-1α: Mean % Cytokine Concentration in DNFB Treated Right Ears versus Vehicle 1-Dosed (S) Mice (60 mg/kg, regimen S): 136%
IL-1β: Mean % Cytokine Concentration in DNFB Treated Right Ears versus Vehicle 1-Dosed (S) Mice (60 mg/kg, regimen S): 52%
IL-3: Mean % Cytokine Concentration in DNFB Treated Right Ears versus Vehicle 1-Dosed (S) Mice (60 mg/kg, regimen S): 61%
IL-5: Mean % Cytokine Concentration in DNFB Treated Right Ears versus Vehicle 1-Dosed (S) Mice (60 mg/kg, regimen S): 37%
IL-6: Mean % Cytokine Concentration in DNFB Treated Right Ears versus Vehicle 1-Dosed (S) Mice (60 mg/kg, regimen S): 32%
IL-12 (p40): Mean % Cytokine Concentration in DNFB Treated Right Ears versus Vehicle 1-Dosed (S) Mice (60 mg/kg, regimen S): 73%
IL-13: Mean % Cytokine Concentration in DNFB Treated Right Ears versus Vehicle 1-Dosed (S) Mice (60 mg/kg, regimen S): 75%
IL-17A: Mean % Cytokine Concentration in DNFB Treated Right Ears versus Vehicle 1-Dosed (S) Mice (60 mg/kg, regimen S): 38%
KC: Mean % Cytokine Concentration in DNFB Treated Right Ears versus Vehicle 1-Dosed (S) Mice (60 mg/kg, regimen S): 35%
MCP-1: Mean % Cytokine Concentration in DNFB Treated Right Ears versus Vehicle 1-Dosed (S) Mice (60 mg/kg, regimen S): 43%
MIP-1α: Mean % Cytokine Concentration in DNFB Treated Right Ears versus Vehicle 1-Dosed (S) Mice (60 mg/kg, regimen S): 57%
MIP-1β: Mean % Cytokine Concentration in DNFB Treated Right Ears versus Vehicle 1-Dosed (S) Mice (60 mg/kg, regimen S): 52%
RANTES: Mean % Cytokine Concentration in DNFB Treated Right Ears versus Vehicle 1-Dosed (S) Mice (60 mg/kg, regimen S): 51%
TNF-α: Mean % Cytokine Concentration in DNFB Treated Right Ears versus Vehicle 1-Dosed (S) Mice (60 mg/kg, regimen S): 65%
